In EP3134349B1 (priority 2014, dated 2015):
≈ marks a conversion by molar mass, not a printed value.

Test: Water solubility by batch tests at room temperature (saturated solution, headspace GC)
Format: physicochemical
Protocol: In particular, in a vial fully filled with distilled water, a volume of pure compound (alone or mixed) in an amount sufficient for obtaining a well detectable precipitate and thus a saturated solution was injected. In order to quantify the solubilized fraction of the compound, the saturated solution was analyzed through gas chromatography of the headspace.

## ClC(Cl)C(Cl)Cl [1,1,2,2-TeCA, 1,1,2,2-Tetrachloroethane]
Pure compound in distilled water
  Experimental solubility: 2.99 ± 0.18 gL^-1
Thermodynamic from solid, mixture of the two compounds 50% V/V, distilled water, no unit printed in this row (other rows gL^-1), read-out: Mixture 50% V/V (experimental water solubility of the component)
  solubility: 1470 ± 90 µg/mL (≈ 8.76 mM)
